For data set [1], the system named is HaCaT cells. The data set is described as follows: LDH release in HaCaT cells. It counts as cell-based. The text has this: (§1) The biological assay methods were as follows: LDH release as described in Muller K, Huang H-S, Wiegrebe W, J. Med. Chem. 39, 3132-3138 (1996); bovine PMNL 5-LO assay as described in Muller K, Gurster D, Piwek S, Wiegrebe W, J. Med. Chem. 36, 4099-4107 (1993); and degradation of 2-deoxy-D-ribose as described in Muller K, Gurster D, Biochem. Pharmacol. 46, 1695-1704 (1993). HaCaT keratinocyte proliferation assay was generally described in Muller K, Leukel P, Zeireis K, Gawlik I, J. Med. Chem 37, 1660-1669 (1994). Specifically, the HaCaT cells were incubated with the test compounds (2 microM) for four hours at 37° C. Extracellular LDH activity was measured using the UV method with pyruvate and NADH and is expressly in mU/ml. Appropriate controls with the vehicle were performed (P<0.01; N=3, SD<10%).
Geisel J.; Mahrle, G. "Lactate dehydrogenase release as an indicator of dithranol-induced membrane injury in cultured human keratinocytes", Arch. Dermatol. Res., 282, 325-329 (1990)). Cytotoxicity against cell cultures by the potent cell growth inhibitors was assessed by the activity of lactate dehydrogenase (LDH) activity release into the culture medium. The release of LDH is commonly used as an indicator of plasma membrane damage.

Data set [2] in a line: Stability at pH 7.4 in phosphate buffer under lipoxygenase assay incubation. Type of data set: physicochemical. Conditions: pH 7.4, phosphate buffer, lipoxygenase assay conditions. How it is done: In connection with confirming the resistance to metabolic degradation of the compounds of the invention, the following procedures will be of interest. C-10-acylated compounds of Tanzer et al., Arch. Pharm., 322, 441-444 (1989) were determined to be stable at pH 7.5 when incubated for glucose-6-phosphate dehydrogenase inhibition assays. […] The compounds of the present invention are stable at pH 7.4 (in phosphate buffer) when incubated for the lipoxygenase assay. […] These procedures are expected to be useful in confirming the metabolic stability of the compounds of the invention.

In data set [3] the test system is HaCaT cells. The data set is described as follows: HaCaT keratinocyte proliferation assay. Type of data set: cell-based. Conditions: Homo sapiens, Table IV, N = 3, P < 0.01, read-out: AA IC50 (antiproliferative activity).
Text: as §1

A short description of data set [4]: Lipid peroxidation in bovine brain phospholipid liposomes. The settings on record: Table I (Addendum); n = 3 or more; standard errors average 20%; read-out: LPO IC50. How it is done:
Phospholipids were prepared essentially as described by Gutteridge, J. M. C., "The Measurement of Malondialdehyde in Peroxidised Ox-Brain Phospholipid Liposomes", Anal. Biochem., 82, 76-82 (1977). Bovine brain, cooled on ice, was freed from blood vessels and washed repeatedly with 0.15M NaCl, pH 7.4. It was cut to pieces and then macerated with an ultra-turrax, passed through a close-meshed sieve, and extracted four times with four times the volume of acetone. The extraction mixture was filtered by suction to remove the acetone, the residue was dried under vacuum, and then repeatedly extracted with petroleum ether (40-60) using twice the volume of the original brain homogenate. The combined extracts were filtered, dried at 45° C., and dissolved in ether (one fifth of the original brain volume). The mixture was treated with five times the volume of acetone, and the resulting precipitate was collected by suction-filtration, dried and stored under N2 at -20° C. in the dark. Bovine brain phospholipids were weighed into glass tubes and shaken in a vortex mixer (Heidolph) in the presence of five small glass beads (.phi. 4 mm) for 1 min. […]
The following reagents were added to glass tubes in the order and at the final concentrations stated. […] The organic layer was separated by centrifugation at 3000 rpm (15 min) and the absorbance at 532 nm was measured against butanol.

A short description of data set [5]: Reducing activity toward DPPH. The settings on record: Table I (Addendum); equimolar amount of test compound. Here is the method:
This assay followed generally the procedures of Blois, M. S., "Antioxidant Determinations by the Use of a Stable Free Radical", Nature, 181, 1199-1200 (1958) and Kato, K. et al., "Studies on Scavengers of Active Oxygen Species. 1. Synthesis and Biological Activity of 2-O-Alkylascorbic Acids", J. Med. Chem., 31, 793-798 (1988). In time studies, 1 ml of test compound solution (10^-4 M) was added to 1 ml of DPPH solution (10^-4 M), each in acetone/PBS (1+1 V/V), and the reduction of DPPH was followed spectrophotometrically at 516 nm. Plots of the reciprocal of DPPH concentrations against time gave straight lines, and the second-orderrate constants were obtained from the slopes and are expressed as mean values (n=3-6). In the cases where DPPH was very fast approximate values are given and expressed as kDPPH >100 or kDPPH >>100M^-1s^-1.
Because a radical scavenging antioxidant reacts rapidly with the stable free radical 2,2-diphenyl-1-picrylhydrazyl (DPPH), Blois, M. S., "Antioxidant Determination by the Use of a Stable Free Radical", Nature, 181, 1199-1200 (1958); Kato, K. et al., "Studies on Scavengers of Active Oxygen Species. I. Synthesis and Biological Activity of 2-O-Alkylascorbic Acids", J. Med. Chem., 31, 793-798 (1988), the reactivities of the new compounds with DPPH were determined by decrease in absorbance at 516 nm.

Data set [6] concerns LTB4 production in human neutrophils. Conditions: depending on cell density; cited from earlier work.
The conditions of data set [7]: pH 7.5; cited from earlier work.
Data set [8] relates to cultured human keratinocytes. The settings on record: cited from earlier work.
Another data set has as its system skin. The settings on record: topical/therapeutic application; cited from earlier work.
The subject of another data set is psoriasis. The settings on record: in vivo; cited from earlier work.

Take `O=C1c2c(O)cccc2Cc2cccc(O)c21` [Anthralin, 1,8-dihydroxy-9(10H)-anthracenone]: the “LDH release versus vehicle control, in words” value in the data set with HaCaT cells [1] (2 microM, 37° C., four hours) was “significantly exceeded that of the vehicle control”. The LDH release in the data set with HaCaT cells [1] (Table IV, 2 μM test compound, N = 3, SD < 10%) is reported as 294 mU; with HaCaT cells [1] (Table V, 2 μM test compound (Example 8)), 294 mU. The time to degradation in [2] was no more than 2 h. In addition, the IC50 with HaCaT cells [3] is 0.7 µM; in data set [4], 12 µM; in data set [6] it was 7 to 74 µM. Further, the kDPPH in [5] worked out at 24.2 ± 4.2 M⁻¹ s⁻¹. In addition, the “stability under G6PD inhibition assay incubation, in words” value in [7] is given as “degraded almost completely”. For the same compound, the “membrane damage, in words” value in [8] is given as “cause membrane damage, but did not directly lead to substantial membrane destruction”. Further, the “irritation, in words” value in the data set with skin is “non-affected skin surrounding a psoriatic lesion to which anthralin is applied is frequently irritated”. In the data set on psoriasis, the “antipsoriatic efficacy, in words” value was “effective in the treatment of psoriasis”.

(Values after patent US5952390A, “10-substituted 1,8-dihydroxy-9(10H) anthracenone pharmaceuticals” (Teva Pharmaceutical Industries Ltd., priority 1998, dated 1999).)
